# Experimental data as given in paper PMC9127750, “Structure-based design of CDC42 effector interaction inhibitors for the treatment of cancer” (Cell reports, 2022).
# Tested on: WM3248 melanoma cells, 486 antibodies
# Assay: Reverse phase protein arrays (RPPA);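 on RPPA ACC1.R.C: ratio of treated to vehicle (0 µM) normalized linear protein signal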;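 on RPPA AMPK.a2 pS345.R.V: ratio of treated to vehicle (0 µM) normalized linear protein signal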;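 on RPPA AMPKa pT172.R.C: ratio of treated to vehicle (0 µM) normalized linear protein signal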;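 on RPPA ASNS.R.V: ratio of treated to vehicle (0 µM) normalized linear protein signal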;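 on RPPA AceCS1.R.V: ratio of treated to vehicle (0 µM) normalized linear protein signal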;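 on RPPA Akt1.R.V: ratio of treated to vehicle (0 µM) normalized linear protein signal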;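 on RPPA Atg5.R.C: ratio of treated to vehicle (0 µM) normalized linear protein signal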;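 on RPPA Bim.R.V: ratio of treated to vehicle (0 µM) normalized linear protein signal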
# Assay type: cell-based, Human
# Conditions: 20 uM
# Excerpt: Pellets were snap frozen in liquid nitrogen and shipped to MD Anderson Cancer Center core RPPA facility for RPPA analysis (Table S5). Three biological replicates for each sample were generated.
# Nomenclatures on the RPPA heatmaps: name_of_antibody.species_of_antibody.status_of_antibody. V - antibody validated; C - validation of antibody in progress; Q - antibody nonspecific; E – under evaluation; antibodies raised in M - mouse, G - goat, R - rabbit, or T - rat.
smiles,measurement,setting,value
"CN(C)c1cccc(Nc2cc(-c3ccccc3)nc(C3CCNCC3)n2)c1 [ARN22089, N1,N1-dimethyl-N3-(6-phenyl-2-(piperidin-4-yl)pyrimidin-4-yl)benzene-1,3-diamine]",RPPA level HSP70.R.C,Average,1.160
same,RPPA level Hexokinase.I.R.C,Average,1.048
same,RPPA level Hexokinase.II.R.V,Average,0.963
same,RPPA level Hif.1αR.C,Average,0.904
same,RPPA level Histone.H3.R.V,Average,5.173
same,RPPA level Histone.H3_pS10.R.V,Average,2.026
same,RPPA level IDO.R.C,Average,1.014
same,RPPA level IGF1R_pY1135_Y1136.R.V,Average,0.992
same,RPPA level IGFBP2.R.V,Average,0.899
same,RPPA level IGFBP3.M.V,Average,0.907
same,RPPA level IGFRb.R.C,Average,1.146
same,RPPA level IL.6.R.C,Average,1.008
same,RPPA level IMP3.R.C,Average,1.016
same,RPPA level INPP4b.R.C,Average,0.905
same,RPPA level IR.b.R.C,Average,1.149
same,RPPA level IRF.1.R.V,Average,0.954
same,RPPA level IRF.3.R.V,Average,0.948
same,RPPA level IRS1.R.V,Average,1.105
same,RPPA level IRS2.R.C,Average,1.211
same,RPPA level JAB1.M.C,Average,0.972
same,RPPA level JNK2.R.V,Average,0.925
same,RPPA level Jagged1.R.V,Average,1.085
same,RPPA level KAP1.R.V,Average,1.034
same,RPPA level KEAP1.R.V,Average,0.960
same,RPPA level LAD1.R.V,Average,1.019
same,RPPA level LC3A.B.R.C,Average,1.119
same,RPPA level LCN2.R.V,Average,1.461
same,RPPA level LDHA.R.C,Average,0.979
same,RPPA level Lck.R.V,Average,1.187
same,RPPA level Lyn.R.V,Average,1.058
same,RPPA level MACC1.R.V,Average,1.008
same,RPPA level MAPK_pT202_Y204.R.C,Average,0.677
same,RPPA level MCT4.R.V,Average,0.896
same,RPPA level MDM2_pS166.R.V,Average,1.230
same,RPPA level MEK1.R.V,Average,2.341
same,RPPA level MEK2.R.V,Average,1.026
same,RPPA level MERIT40.R.C,Average,0.895
same,RPPA level MERIT40_pS29.R.V,Average,0.991
same,RPPA level METTL3.R.V,Average,1.155
same,RPPA level MIF.R.C,Average,0.950
same,RPPA level MIG6.R.V,Average,0.989
same,RPPA level MITF.R.V,Average,1.031
same,RPPA level MLH1.M.V,Average,0.887
same,RPPA level MLKL.R.V,Average,0.867
same,RPPA level MMP2.R.V,Average,0.982
same,RPPA level MMP14.R.V,Average,1.321
same,RPPA level MR1.M.C,Average,1.026
same,RPPA level MRAP.R.C,Average,1.126
same,RPPA level MSH2.R.C,Average,0.913
same,RPPA level MSH6.R.C,Average,1.164
same,RPPA level MSI2.R.C,Average,1.099
same,RPPA level MTCO1.M.V,Average,1.031
same,RPPA level MTSS1.M.C,Average,0.981
same,RPPA level Mcl.1.R.V,Average,0.838
same,RPPA level Melanoma.gp100.R.C,Average,1.007
same,RPPA level Merlin.R.C,Average,1.156
same,RPPA level Midkine.R.V,Average,0.970
same,RPPA level Mitofusin.1.R.V,Average,0.952
same,RPPA level Mitofusin.2.R.V,Average,0.892
same,RPPA level Mnk1.R.V,Average,0.957
same,RPPA level mTOR.R.V,Average,0.941
same,RPPA level mTOR_pS2448.R.C,Average,0.914
same,c.Jun_pS73.R.V RPPA level,Average,0.970
same,c.Kit.R.V RPPA level,Average,1.141
same,c.Met_pY1234_Y1235.R.V RPPA level,Average,1.064
same,cGAS.R.V RPPA level,Average,1.063
same,cdc2_pY15.R.C RPPA level,Average,1.101
same,cdc25C.R.V RPPA level,Average,0.883
same,RPPA ACC1.R.C,D.1,0.904
same,RPPA ACC_pS79.R.V,D.1,1.061
same,RPPA ACLY_pS455.R.V,D.1,0.944
same,RPPA ACSL1.R.V,D.1,1.054
same,RPPA ACVRL1.R.C,D.1,1.049
same,RPPA ADAR1.M.V,D.1,1.103
same,RPPA ALKBH5.R.V,D.1,1.309
same,RPPA AMPK.a2_pS345.R.V,D.1,0.933
same,RPPA AMPKa.R.C,D.1,1.010
same,RPPA AMPKa_pT172.R.C,D.1,1.099
same,RPPA ARID1A.R.C,D.1,2.023
same,RPPA ASNS.R.V,D.1,0.909
same,RPPA ATM.R.V,D.1,0.752
same,RPPA ATP5A.M.C,D.1,1.056
same,RPPA ATP5H.R.V,D.1,1.455
same,RPPA ATR.R.V,D.1,1.004
same,RPPA ATRX.R.C,D.1,0.831
same,RPPA AceCS1.R.V,D.1,1.063
same,RPPA Akt1.R.V,D.1,0.712
same,RPPA Akt1_pS473.R.V,D.1,0.750
same,RPPA Akt2.R.V,D.1,0.746
same,RPPA Akt2_pS474.R.C,D.1,0.847
same,RPPA Akt.R.V,D.1,0.884
same,RPPA Akt_pS473.R.V,D.1,0.449
same,RPPA Ambra1_pS52.R.C,D.1,1.082
same,RPPA Annexin.I.M.V,D.1,0.994
same,RPPA Annexin.VII.M.V,D.1,1.057
same,RPPA Atg4B.R.C,D.1,0.789
same,RPPA Atg5.R.C,D.1,1.025
same,RPPA Atg7.R.V,D.1,0.657
same,RPPA Aurora.A.R.C,D.1,1.945
same,RPPA Aurora.ABC_pT288_pT232_pT198.R.C,D.1,0.842
same,RPPA Aurora.B.R.V,D.1,1.775
same,RPPA Axl.R.V,D.1,0.594
same,RPPA B7.H3.R.C,D.1,0.996
same,RPPA B7.H4.R.C,D.1,0.838
same,RPPA B.Raf.R.C,D.1,0.786
same,RPPA B.Raf_pS445.R.V,D.1,0.752
same,RPPA BAP1.M.V,D.1,1.051
same,RPPA BCL2A1.R.V,D.1,0.907
same,RPPA BMK1.Erk5_pT218_Y220.R.V,D.1,1.016
same,RPPA BRCA1.M.C,D.1,1.165
same,RPPA BRD4.R.V,D.1,1.680
same,RPPA Bad_pS112.R.V,D.1,0.993
same,RPPA Bak.R.C,D.1,1.006
same,RPPA Bcl2.R.C,D.1,1.280
same,RPPA Bcl.xL.R.V,D.1,0.996
same,RPPA Beclin.R.C,D.1,1.111
same,RPPA BiP.GRP78.M.C,D.1,1.051
same,RPPA Bid.R.C,D.1,1.015
same,RPPA Bim.R.V,D.1,1.098
same,RPPA X4E.BP1.R.V,D.1,0.866
same,RPPA X4E.BP1_pS65.R.V,D.1,0.834
same,RPPA X4E.BP1_pT37_T46.R.V,D.1,0.918
same,RPPA X14.3.3.zeta.R.V,D.1,1.017
same,RPPA X14.3.3βR.V,D.1,1.192
same,RPPA X53BP1.R.V,D.1,1.055
same,RPPA b.Actin.R.C,D.1,1.239
same,RPPA b.Catenin.R.V,D.1,1.006
same,RPPA b.Catenin_pT41_S45.R.V,D.1,1.014
same,RPPA c.Abl.R.V,D.1,0.991
same,RPPA c.Abl_pY412.R.C,D.1,0.922
same,RPPA c.IAP2.R.C,D.1,1.019
same,RPPA PREX1.R.V Average,average of 3,0.950
same,RPPA PTEN.R.V Average,average of 3,1.082
same,RPPA PTPN12.R.V Average,average of 3,1.211
same,RPPA PYGB.R.V Average,average of 3,1.080
same,RPPA PYGM.M.C Average,average of 3,0.983
same,RPPA Puma.R.C Average,average of 3,1.011
same,RPPA RBM15.R.V Average,average of 3,0.995
same,RPPA RIP3.R.C Average,average of 3,0.996
same,RPPA RIP.R.C Average,average of 3,1.022
same,RPPA RPA32.R.V Average,average of 3,1.078
same,RPPA RPA32_pS4_S8.R.C Average,average of 3,1.531
same,RPPA RRM1.R.C Average,average of 3,0.946
same,RPPA RRM2.R.C Average,average of 3,0.922
same,RPPA RSK1.R.V Average,average of 3,0.941
same,RPPA RSK.R.C Average,average of 3,0.973
same,RPPA Rab11.R.C Average,average of 3,1.059
same,RPPA Rad23A.R.C Average,average of 3,0.946
same,RPPA Rad50.R.V Average,average of 3,1.053
same,RPPA Rad51.R.C Average,average of 3,0.940
same,RPPA Raptor.R.V Average,average of 3,0.967
same,RPPA Rb.M.Q Average,average of 3,0.977
same,RPPA Rb_pS807_S811.R.V Average,average of 3,0.907
same,RPPA Rheb.M.C Average,average of 3,1.147
same,RPPA Rictor.R.C Average,average of 3,1.017
same,RPPA Rictor_pT1135.R.V Average,average of 3,1.076
same,RPPA S6.M.V Average,average of 3,0.982
same,RPPA S6_pS235_S236.R.V Average,average of 3,0.339
same,RPPA S6_pS240_S244.R.V Average,average of 3,0.423
same,RPPA SCD.M.V Average,average of 3,0.961
same,RPPA SDHA.R.V Average,average of 3,1.098
same,RPPA SF2.R.V Average,average of 3,1.008
same,RPPA SFRP1.R.V Average,average of 3,0.986
